Experiments:
[1] = test system: laser-induced AMD mice; assay: Laser-induced age-related macular degeneration (AMD) animal model; type: in vivo, C57BL/6 mice
Procedure: Six-week-old female C57BL/6 mice (20-25 g) were purchased from Orient (Charles River Korea, Seoul, Korea). All animals were maintained in a 12-hour light/dark cycle (light on, 08:00) at 22° C.-25° C. with free access to food and water. The mice were placed individually in an induction chamber, and anesthesia was induced with 2% isoflurane (HANA PHARM CO., Seoul, Korea). The lesions were induced in each eye of the mice by laser photocoagulation (SDL405-700, SD Laser, China). The laser pulses were from blue laser (wavelength, 405 nm; SD Laser). Laser parameters were 100 μm spot size, 700 mw power and 1 s exposure time. A total of 15 mice were randomized into three groups: (i) not subjected to laser induction (n=3); (ii) subjected to laser burns and injected with the vehicle buffer (n=5); and (iii) CaLa, 2 mg/kg/day (B.I.D) (n=7). CaLa treatment was started the days after laser photocoagulation and was treated subcutaneously for 14 days. (33, 34)
The histopathologic examination of retinal lesions was performed 2 weeks after 2 mg/kg of CaLa was administered subcutaneously. The enucleated eyes were fixed with 4% paraformaldehyde (PFA) for 24 h at 4° C., and eyes obtained by removing the anterior segments were washed three times in phosphate-buffered saline. The fixed flat-mounts were dehydrated in a graded series of ethanol and embedded in paraffin. […] The choroidal lesion and neovascularization on the flat-mounts were observed by confocal microscopy (Carl Zeiss, Oberkochen, Germany).
Animals. […] Six-week-old C57BL mice were purchased from Orient (Charles River Korea, Seoul, Korea). All animals were maintained in a 12-hour light/dark cycle (light on, 08:00) at 22-25° C. with free access to food and water.
Calcium lactate was purchased from Sigma Aldrich (St. Louis, MO, USA).
Animal model for ocular disease. The mice were placed individually in an induction chamber, and anesthesia was induced with 2% isoflurane (HANA PHARM CO., Seoul, Korea). The laser-induced rupture of Bruch's membrane was induced in both eyes of mice by laser photocoagulation (SDL405-700, SD Laser, China). […]

[2] = test system: LPS-damaged brain of rats; assay: Alzheimer and stroke model, intracranial injection of LPS; type: in vivo, Sprague-Dawley (SD) rats; conditions: 2 mg/kg daily subcutaneous 21 days
Procedure: Animals. […] Eight-week old male Sprague-Dawley (SD) rats were obtained from Samtako Co. (Osan, Gyeonggi-do, Republic of Korea) and bred under specific-pathogen-free (SPF) conditions. All animals were maintained in a 12-hour light/dark cycle at 22-25° C. with free access to food and water.
Dissolve 1 mg of LPS powder in 1 ml of saline. Keep the tubes on ice if LPS is going to be used fresh. For long storage, screw cap vials are preferred. The aliquots were stored at −20° C. Calcium lactate was purchased from Sigma Aldrich (St. Louis, MO, USA).
Intracranial injection of LPS. The animals were placed in a small acrylic cage that was coupled with an anesthesia machine that allowed them to breathe freely under gaseous anesthesia (2% isoflurane, Spartanburg, SC, USA). […] The animal fur of head was shaved with an electric clipper, and the skin was swabbed with iodine. LPS was kept it on ice before use. All the surgical materials disinfected with 70% ethanol. Hamilton syringe barrel inner space was cleaned with distilled water and 70% ethanol. The Hamilton syringe was placed in the syringe holder. The animal in the stereotaxic apparatus was placed on horizontal position. A midline incision (about 1 cm) on the skin of head was made with the scalpel. The needle of Hamilton syringe was placed on the bregma. Read the three coordinates (AP: −3.6, LM: 2.0, and DV: −3.8) on the manipulator (in mm) and write them down; this was used for starting point. Slowly, set the DV coordinate of the injection point; this inserts the needle tip into the brain until the injection point. The LPS solution (2 μl) was released at an approximate flow rate of 0.5 μl/min. After the injection, the needle was removed very slowly. The wound area was closed by suturing, and then disinfectant was applied. The rat was marked for further identification.
Immunohistochemistry. Brain tissue was sectioned at 5 μm on cryostat and stained for histological examination. Microscopic images were obtained at 200× magnification. […]

CC(O)C(=O)[O-].CC(O)C(=O)[O-].[Ca+2] (stereo not drawn) [calcium lactate]
choroidal lesion (fluorescence, flat-mount) ([1]; 2 mg/kg daily subcutaneous): restored | choroidal neovascularization (fluorescence, flat-mount) ([1]; 2 mg/kg daily subcutaneous): restored | morphology of the retinal pigment epithelium (H&E) ([1]; 2 mg/kg subcutaneous, choroidal flat-mount): recovered | damaged brain tissue [2]: Recovery | inflammatory reaction, which exacerbates Alzheimer's and stroke [2]: greatly reduced | microglia infiltration (Iba-1) in brain [2]: reduction

Source: US12576107B2, “Methods of treating chronic inflammatory diseases” (METIMEDI PHARMACEUTICALS CO., LTD., priority 2018, dated 2026)
